{
  "source": "patent US11746103B2",
  "about": "“ALK-5 inhibitors and uses thereof” (Sumitomo Pharma Oncology, Inc., priority 2020, dated 2023)",
  "key": {"[1]": {"tested_on": "bleomycin-induced lung fibrosis", "assay": "Bleomycin-induced lung fibrosis study", "assay_type": "in vivo, mouse", "text": "Fibrosis, the formation of excess connective tissue causing stromal hardening and scar formation is a hallmark of cancer. Up to 20% of cancers are linked to chronic, inflammation-related fibrosis, including hepatocellular, gastric, esophageal, head and neck, colon, pancreatic, cervix, and vulvar cancers. The contribution of fibrosis for early cancer development remains unclear; however, in some advanced solid tumors it is believed that fibrotic tissues act like a barrier, preventing therapeutic agents like chemotherapy or biologics from penetrating the tumor tissue. Additionally, strong fibrotic tissue is thought to contribute to excluding immune cells from entering the tumor core, creating immune excluded or immune desert phenotypes. To evaluate the anti-fibrotic properties of Ex-11, a prophylactic model of bleomycin-induced lung fibrosis in male C57BL/6 mice was utilized, and various endpoints evaluated.\nAll mice in this study were 8-week-old male C57BL/6 mice purchased from Taconic. On Day −2 prior to bleomycin administration, all animals were weighed and distributed into groups with 10 mice each (Table 18) such that each group of animals contained animals of similar body weights.\nOn day 0, animals were treated with 1.5 U/kg bleomycin (Blenoxane catalog number NDC 61703-323-22, Hospira Pharmaceutical) intratracheally, except Group 1, which was administered normal saline via oropharyngeal route to serve as the healthy naïve control group. Prophylactic treatment was administered from one day prior to bleomycin administration to day 21 post bleomycin administration. On Day 21, only the morning dose was administered. Animals were harvested on day 21 and lung weights were measured. Body weights of all mice was recorded at least three times a week beginning on Day −2 and ending on the day of harvest, Day 21. Pirfenidone was used as positive control compound, as it is an FDA-approved drug for the treatment of idiopathic pulmonary fibrosis (IPF) in humans. All compounds were prepared in 10% Tween-20 in water; a homogenous suspension was formulated using a magnetic stir bar.\nAt the end of the study, total lung tissues were weighed and fixed for histological examination, which was conducted by a trained pathologist blinded to the treatment groups. Specifically, whole lungs from each mouse were paraffin-embedded in a single block. Two slides from each block were sectioned to the depth of the mainstem bronchi (near the center of each lobe) and stained with either hematoxylin and eosin (H&E) or Masson's trichrome (MT). Glass slides were evaluated using light microscopy by a board-certified veterinary pathologist. Lung sections were scored according to the methods described below, evaluating five randomly chosen fields in each tissue. Fixed lungs were sectioned, and consecutive tissue sections were stained with H&E or MT. Various pathological scoring parameters were used to determine the average Ashcroft score, as well as average inflammation and collagen deposition indicating fibrosis.\nParameter of scoring formalin fixed lung sections:\nModified Ashcroft Score: H&E-stained lung sections were scored according to the modified Ashcroft scale. Scores for five representative 200× microscopic fields per sample were averaged to obtain a mean score for each animal. […]"}, "[2]": {"tested_on": "antigen presentation pathway (APP)", "assay": "Nanostring differential gene expression analyses of 4T1, EMT6 and S91 tumors", "assay_type": "in vivo, mouse", "settings": "4T1, EMT6, S91 tumors", "text": "The objective of this study was to determine the differential gene expression (DGE) patterns of 4T1, EMT6, and S91 tumors treated with EX-11+immune checkpoint inhibitor (ICI), EX-11 alone, ICI alone, or vehicle control. For the purpose of this study, ICI=anti-PD-1 or anti-PD-L1, as indicated.\nFor NanoString assays, tumors from three syngeneic models of cancer were used:\nRNA was isolated from the frozen tumors of ≥3 mice per group using the Direct-Zol RNA Miniprep (Zymo Research). The treatment arms and number of mice/tumors used for downstream applications is outlined in Table 17 (R=Responder, NS=Non-responder).\nEqual concentrations of RNA for each tumor within each group were pooled. Two-hundred ng of RNA per group was used for downstream applications. Three separate NanoString nCounter panels were used per protocol: 1) Fibrosis, 2) PanCancer Pathways, 3) Immunology. RCC raw data files were uploaded into nCounter 4.0 software where counts were normalized to housekeeping genes. Gene lists in each panel were combined into a single spreadsheet for downstream analyses. For genes found in […], mean count values were used. RStudio software was used to generate heat maps of DGE signatures within each study for each group. Ingenuity Pathway Analysis (IPA) was used to identify the dysregulated signaling pathways within each study for each group."}, "[3]": {"tested_on": "ES-2-luc cells", "assay": "ES-2 survival study (ovarian cancer xenograft)", "assay_type": "in vivo, mouse", "settings": "150 mg/Kg twice a day, P.O.", "text": "Ovarian cancer is still associated with poor prognosis and remains among the leading causes of oncology-related deaths in females. High recurrence rates, resistance to chemotherapy and meager outcome highlight the need for improved therapies that stem from understanding the complex and multifactorial etiology of ovarian malignancies. TGF-01 signaling within tumor microenvironment regulates important steps in ovarian cancer progression such as epithelial to mesenchymal transition, dissemination, and metastasis. Inhibition of TGF-01 signaling pathway has shown a potential as a pharmaceutical target in ovarian malignancies. ES-2 ovarian cancer mouse xenograft model was used to test efficacy of EX-11 in ovarian cancer, as measured by improvement in survival.\nSixteen-week-old female athymic nude mice were injected with two million ES-2-luc cells. […]\nMortality was recorded for animals found dead in the cage, and for the animals sacrificed based on humane end point based on main three criteria—loss of mobility and response, wasting with pronounced ascites fluid buildup, and palpable drop in body temperature (animals were assessed as cold to touch when handled in gloves).\nOn study day 22, the remaining surviving animals in the vehicle group were determined moribund, and the study was terminated based on humane end point criteria. […]"}, "[4]": {"tested_on": "COV434 cells (wild-type FOXL2)", "assay": "FOXL2 cell viability assay (Cell Titer Glo), COV434", "assay_type": "cell-based", "settings": "Homo sapiens, 72 h, 3 days", "procedure": "(§1) EX-11 was submitted to a cell viability assay in KGN and COV434 cell lines. KGN cells are derived from FOXL2^C134W AGCT of a person with a recurrent metastatic GCT. COV434 cells are derived from FOXL2WT JGCT of a person with a recurrent metastatic GCT. The cells were seeded in triplicate in 96 well culture plates and treated with nine, 3-fold dilutions of EX-11 or DMSO for 6 days (KGN) or 3 days (Cov434), which represented 3 cell doublings, respectively. Viability was assessed by Cell Titer Glo (Promega)."}, "[5]": {"tested_on": "KGN cells (FOXL2 C134W)", "assay": "FOXL2 cell viability assay (Cell Titer Glo), KGN", "assay_type": "cell-based, human", "procedure": "as §1"}},
  "note": "“Also recorded” adds a separate entry of the source.",
  "data": [
    {"smiles": "Cc1cccc2c(Nc3ccnc(Nc4cccc(N5CCOCC5)c4)n3)cnnc12", "note": "[EX-11, N4-(8-methylcinnolin-4-yl)-N2-(3-morpholinophenyl)pyrimidine-2,4-diamine]", "values": [
      {"measurement": "body weight loss", "setting": "[1]; 75 mg/kg twice a day", "value": "No severe weight loss of over 5-10%"},
      {"measurement": "average Ashcroft score", "setting": "[1]; H&E, vs bleomycin/vehicle", "value": "highly statistically significant reduction in the average score"},
      {"measurement": "average lung inflammation score", "setting": "[1]; H&E, vs bleomycin/vehicle", "value": "highly statistically significant reduction in the average score"},
      {"measurement": "average lung fibrosis/collagen deposition score", "setting": "[1]; Masson's trichrome, vs bleomycin/vehicle", "value": "highly statistically significant reduction in the average score"},
      {"measurement": "lung weight normalized to total animal weight (lung weight index)", "setting": "[1]; day 21, vs bleomycin/vehicle", "value": "highly statistically significant"},
      {"measurement": "total lung weight", "setting": "[1]; day 21, vs bleomycin/vehicle", "value": "significant decrease in lung weight"},
      {"measurement": "antigen presentation pathway (APP) in tumors", "setting": "[2]", "value": "upregulates the APP in tumors"},
      {"measurement": "overall survival compared with vehicle-treated animals", "setting": "[3]", "value": "significantly increased; also recorded: significantly improved"},
      {"measurement": "IC50", "setting": "[4]", "value": "> 10", "unit": "µM"},
      {"measurement": "sensitivity of KGN cells relative to COV434 cells", "setting": "[5]", "value": "> 70", "unit": "fold"},
      {"measurement": "IC50", "setting": "[5]; Homo sapiens, 144 h, KGN cells, 6 days", "value": 140, "unit": "nM"}
    ]}
  ]
}
